# Measured values from US20060270629A1, “Methanocarba cycloalkyl nucleoside analogues” (Govt of the U.S.A., represented by the Secretary, Dept of …, priority 2000, published 2006).
# Several values for one entry are separate records, joined by “and”; a condition that tells them apart may be missing. Equal entries are not always repeated. Where two headings read alike, the source gives them in different places.
# Assays:
# human A3 receptors = molecular target: T1, human A3 receptors (Homo sapiens, UniProt P0DMS8); assay: A3 adenosine receptor binding using [125I]AB-MECA, transfected CHO cell membranes; settings: for Ki: human A3 receptors, read-out: K1 (nM), hA3; for A1/A3: ratio of Ki at rat A1 to Ki at A3 (human, or rat where marked (r))
# T1 sequence (P0DMS8 1-318): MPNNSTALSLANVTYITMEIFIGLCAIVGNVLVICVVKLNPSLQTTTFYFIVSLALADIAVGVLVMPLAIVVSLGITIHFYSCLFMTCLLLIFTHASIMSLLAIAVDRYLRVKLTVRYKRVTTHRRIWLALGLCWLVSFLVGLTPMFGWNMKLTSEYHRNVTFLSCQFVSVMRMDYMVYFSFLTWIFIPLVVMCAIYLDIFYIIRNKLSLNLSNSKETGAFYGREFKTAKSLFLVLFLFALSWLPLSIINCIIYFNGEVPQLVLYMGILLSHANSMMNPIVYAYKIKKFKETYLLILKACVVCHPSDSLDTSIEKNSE
# cloned hA3AR = molecular target: T2, cloned hA3AR (Homo sapiens, UniProt P0DMS8); assay: Stimulation of [35S]GTPγS binding, CHO cell membranes expressing cloned hA3AR; settings: for cloned hA3AR % Maximal Stimulation / cloned hA3AR % Stimulation at 10 μM / agonist efficacy at human A3 receptors: [35S]GTPγS binding; for EC50: stimulation of basal [35S]GTPγS binding, n = 3
# T2 sequence (P0DMS8 1-318): T1 sequence (P0DMS8 1-318)
# rat A1 receptors = molecular target: T3, rat A1 receptors (Rattus norvegicus, UniProt P25099); assay: Radioligand binding at rat A1 adenosine receptors; settings: for Ki: rat A1 receptors, read-out: K1 (nM), rA1
# T3 sequence (P25099 1-326): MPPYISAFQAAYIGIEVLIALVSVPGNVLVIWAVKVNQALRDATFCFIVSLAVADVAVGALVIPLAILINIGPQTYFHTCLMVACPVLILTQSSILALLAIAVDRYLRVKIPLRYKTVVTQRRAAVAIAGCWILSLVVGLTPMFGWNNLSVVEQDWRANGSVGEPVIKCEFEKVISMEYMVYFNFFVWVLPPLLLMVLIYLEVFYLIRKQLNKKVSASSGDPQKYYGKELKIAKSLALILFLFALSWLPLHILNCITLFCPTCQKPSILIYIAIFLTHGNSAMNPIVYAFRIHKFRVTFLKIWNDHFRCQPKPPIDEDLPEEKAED
# rat A2A receptors = rat A2A receptors (Rattus norvegicus, UniProt P30543); assay: Radioligand binding at rat A2A adenosine receptors; settings: for Ki: read-out: K1 (nM), rA2A
# rA1AR = molecular target: T4, rA1AR (Rattus norvegicus, UniProt P25099); assay: Stimulation of [35S]GTPγS binding, rat cerebral cortical membranes containing the A1AR; format: biochemical; settings: for Emax: read-out: rA1AR % Maximal Stimulation
# T4 construct: in rat cerebral cortical membranes containing the A1AR; from tissue; host or cells: rat cerebral cortical membranes
# T4 sequence (P25099 1-326): T3 sequence (P25099 1-326)
# cloned hA1AR = molecular target: T5, cloned hA1AR (Homo sapiens, UniProt P30542); assay: Stimulation of [35S]GTPγS binding, CHO cell membranes expressing cloned hA1AR; settings: for Emax: read-out: cloned hA1AR % Maximal Stimulation
# T5 sequence (P30542 1-326): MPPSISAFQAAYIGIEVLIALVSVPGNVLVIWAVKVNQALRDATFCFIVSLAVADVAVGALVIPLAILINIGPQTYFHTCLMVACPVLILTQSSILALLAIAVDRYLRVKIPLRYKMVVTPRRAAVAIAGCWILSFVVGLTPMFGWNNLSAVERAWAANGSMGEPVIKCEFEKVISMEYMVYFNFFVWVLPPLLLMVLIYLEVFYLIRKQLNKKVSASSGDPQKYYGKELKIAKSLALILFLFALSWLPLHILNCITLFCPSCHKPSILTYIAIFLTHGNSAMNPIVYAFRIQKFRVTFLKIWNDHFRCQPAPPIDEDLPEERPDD
# human A2B receptor = molecular target: T6, human A2B receptor (Homo sapiens, UniProt P29275); assay: Radioligand binding at human A2B receptor using [3H]ZM 241,385; settings: for Ki: read-out: K1 (nM), hA2B
# T6 sequence (P29275 1-332): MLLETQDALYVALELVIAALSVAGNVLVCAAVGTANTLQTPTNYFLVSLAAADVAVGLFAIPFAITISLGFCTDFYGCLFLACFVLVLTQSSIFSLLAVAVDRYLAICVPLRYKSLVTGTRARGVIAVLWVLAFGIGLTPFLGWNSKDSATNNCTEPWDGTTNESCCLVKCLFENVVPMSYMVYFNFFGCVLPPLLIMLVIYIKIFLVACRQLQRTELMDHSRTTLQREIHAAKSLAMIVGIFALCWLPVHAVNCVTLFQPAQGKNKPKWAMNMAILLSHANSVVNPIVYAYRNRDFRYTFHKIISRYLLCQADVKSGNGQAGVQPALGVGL
# A3 receptors = molecular target: T7, A3 receptors (Rattus norvegicus, UniProt P28647); assay: Radioligand binding at rat A3 adenosine receptors, values marked (r); settings: read-out: K1 (nM), A3 (r)
# T7 sequence (P28647 1-320): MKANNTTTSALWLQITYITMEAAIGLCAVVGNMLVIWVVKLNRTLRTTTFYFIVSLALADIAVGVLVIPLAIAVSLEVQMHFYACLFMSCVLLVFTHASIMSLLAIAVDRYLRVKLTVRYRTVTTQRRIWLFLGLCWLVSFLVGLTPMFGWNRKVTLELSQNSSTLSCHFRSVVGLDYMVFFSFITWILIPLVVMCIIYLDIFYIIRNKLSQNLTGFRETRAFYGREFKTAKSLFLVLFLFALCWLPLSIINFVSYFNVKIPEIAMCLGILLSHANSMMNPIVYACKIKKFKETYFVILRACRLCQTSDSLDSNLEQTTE
# [1] = read-out: cloned hA1AR EC50, stimulation of basal [35S]GTPγS binding, n = 3
# Chain of rat A2A receptors (P30543 whole entry): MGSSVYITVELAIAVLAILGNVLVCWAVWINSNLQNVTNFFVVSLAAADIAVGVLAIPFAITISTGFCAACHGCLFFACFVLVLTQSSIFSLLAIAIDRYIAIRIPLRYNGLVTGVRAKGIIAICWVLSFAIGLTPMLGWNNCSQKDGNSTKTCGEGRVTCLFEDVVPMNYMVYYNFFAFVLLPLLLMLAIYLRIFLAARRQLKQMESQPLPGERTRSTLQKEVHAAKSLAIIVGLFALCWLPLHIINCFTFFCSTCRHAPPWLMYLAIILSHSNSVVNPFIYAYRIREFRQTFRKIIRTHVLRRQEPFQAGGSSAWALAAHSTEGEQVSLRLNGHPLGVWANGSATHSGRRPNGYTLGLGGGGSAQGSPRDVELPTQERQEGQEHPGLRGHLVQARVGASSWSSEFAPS
Emax (cloned hA1AR) [%],SMILES,Ki (human A3 receptors),cloned hA3AR % Maximal Stimulation (cloned hA3AR) [%],Ki (rat A1 receptors) [nM],Ki (rat A2A receptors) [nM],A1/A3 (human A3 receptors),EC50 (rA1AR) [nM],EC50 (cloned hA1AR; [1]) [nM],other results
–,"OC[C@H]1O[C@@H](n2cnc3c(NC4CCCC4)ncnc32)[C@H](O)[C@@H]1O [Compound 6a, CPA, reference compound]",274 ± 20 nM,100,–,–,–,–,–,EC50 (cloned hA3AR; read-out: cloned hA3AR EC50): 7980 ± 60 nM
102 ± 1,"OCC12CC1C(n1cnc3c(NC4CCCC4)ncnc31)C(O)C2O [Compound 6c, (1′R,2R,3′R,4′R,1′aR)-2,3-(dihydroxy)-4-(hydroxymethyl)-1-(6-cyclopentylaminopurine-9-yl)bicyclo(3.1.0)hexane)]",170 ± 51 nM,–,5.06 ± 0.51,6800 ± 1800,0.030,100 ± 17,–,"affinity at rat A1 receptors, fold less than for 6a (rat A1 receptors; versus 6a): 3 fold; Emax (rA1AR): 75 ± 6%; EC50 (cloned hA1AR): 21.5 ± 2.3 nM; agonist efficacy at human A1 receptors (cloned hA1AR; [35S]GTPγS binding): full agonist; cloned hA3AR % Stimulation at 10 μM (cloned hA3AR): 14 ± 2% at 10 μM; EC50 (cloned hA3AR; cloned hA3AR EC50 (nM)): > 10000 nM"
–,"OC[C@H]1C[C@@H](n2cnc3c(NCc4cccc(I)c4)ncnc32)[C@@H](O)[C@@H]1O [Compound 7b, (1′R, 2′R,3′R,4′R)-2,3-(dihydroxy)-4-(hydroxymethyl)-1-(6-(3-idobenzylamino)purine-9-yl)cyclopentane]",1960 ± 370 nM,–,25900,–,13,–,> 10000,"% displacement, rA2A (rat A2A receptors; at 100 μM): <10% 100 μM; cloned hA1AR % Stimulation at 10 μM (cloned hA1AR; [35S]GTPγS binding, at 10 μM): 5 ± 2% at 10 μM; cloned hA3AR % Stimulation at 10 μM (cloned hA3AR): 15 ± 5% at 10 μM; EC50 (cloned hA3AR; read-out: cloned hA3AR EC50): > 10000 nM"
86 ± 2,"OCC12CC1C(n1cnc3c(NCc4cccc(I)c4)ncnc31)C(O)C2O (centres unmarked) [Compound 7c, 4-[6-(3-iodobenzylamino)-purin-9-yl]-1-hydroxymethyl-bicyclo[3.1.0]hexane-2,3-diol]",4.1 nM and 4.13 nM,45.3 ± 6.8,–,601 ± 236,–,–,–,"Ki (human A2B receptor): 12100 nM; EC50 (cloned hA1AR): 218 ± 18 nM; EC50 (cloned hA3AR; cloned hA3AR EC50 (nM)): 0.7 ± 0.16 nM; Emax (cloned hA3AR; read-out: cloned hA3AR % Maximal Stimulation, [35S]GTPγS binding): 45%"
–,OCC1C(O)C(O)C2(n3cnc4c(NC5CCCC5)nc(Cl)nc43)CC12 (centres unmarked) [Compound 8c],466 ± 58 nM,–,8.76 ± 0.81,3390 ± 520,0.019,145 ± 35,31.2 ± 3.3,"selectivity in binding to rat A1 vs. human A3 receptors (rat A1 receptors; binding): 53 fold; % displacement, hA2B (human A2B receptor; at 100 μM): 27 ± 7% at 100 μM; rA1AR % Maximal Stimulation (rA1AR): 96 ± 2%; cloned hA1AR % Maximal Stimulation (cloned hA1AR; [35S]GTPγS binding): 97 ± 1%"
–,"OC[C@H]1O[C@@H](n2cnc3c(NCc4cccc(I)c4)nc(Cl)nc32)[C@H](O)[C@@H]1O [Compound 9a, 2-chloro-N-6-(3iodobenzyl)adenosine]",–,–,–,–,–,–,–,Ki (A3 receptors): 1.41 ± 0.17 nM
–,OCC1C(O)C(O)C2(n3cnc4c(NCc5cccc(I)c5)nc(Cl)nc43)CC12 (centres unmarked) [Compound 9c],–,22,141,732,–,684 ± 75,142 ± 24,Ki (human A2B receptor): 41000 nM; rA1AR % Maximal Stimulation (rA1AR): 48 ± 3%; cloned hA1AR % Maximal Stimulation (cloned hA1AR; [35S]GTPγS binding): 91 ± 1%; agonist efficacy at human A3 receptors (cloned hA3AR): partial A3 receptor agonists

SMILES,Emax (cloned hA1AR) [%],Ki (human A3 receptors),cloned hA3AR % Maximal Stimulation (cloned hA3AR) [%],Ki (rat A1 receptors) [nM],Ki (rat A2A receptors) [nM],A1/A3 (human A3 receptors),EC50 (rA1AR) [nM],EC50 (cloned hA1AR; [1]) [nM],other results
"OC[C@H]1O[C@@H](n2cnc3c(NCc4cccc(I)c4)ncnc32)[C@H](O)[C@@H]1O [Compound 7a, reference compound]",91 ± 1,–,100,–,–,–,–,43.1 ± 10.4,Emax (rA1AR): 95 ± 4%; agonist efficacy at human A3 receptors (cloned hA3AR): full A3 agonists
